Experimental data from patent US20210198277A1, “AMINE-SUBSTITUTED ARYL OR HETEROARYL COMPOUNDS” (Epizyme, Inc., priority 2016, published 2021).
Read-outs that look alike come from different tables or passages of the source.

Legend:
human EHMT2 913-1193 = target: T1, human EHMT2 913-1193 (Homo sapiens, UniProt Q96KQ7); assay: EHMT2 enzyme assay on histone peptide substrate (EHMT2 PEP); format: biochemical
T1 construct: recombinant purified human EHMT2 913-1193, Viva; purchased Viva
T1 sequence (Q96KQ7 913-1193): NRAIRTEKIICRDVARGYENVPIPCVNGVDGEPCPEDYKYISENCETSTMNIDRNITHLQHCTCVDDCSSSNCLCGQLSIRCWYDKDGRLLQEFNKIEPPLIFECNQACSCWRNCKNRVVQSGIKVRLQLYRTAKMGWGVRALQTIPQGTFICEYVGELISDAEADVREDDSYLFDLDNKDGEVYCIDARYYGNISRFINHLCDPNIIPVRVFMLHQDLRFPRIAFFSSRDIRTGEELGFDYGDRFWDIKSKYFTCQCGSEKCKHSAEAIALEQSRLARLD
Procedure, shortened: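 10-pt 3-fold series, 50 μM top final, 2% DMSO; 30 min preinc w/ 0.031 nM enzyme; pH 7.5 Bicine/TCEP buffer; ^3H-SAM + biotin-histone peptide, 60 min RT; SAM quench; streptavidin Flashplate capture, TopCount.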

EHMT1 = target: T2, EHMT1 (Homo sapiens, UniProt Q9H9B1); assay: EHMT1 enzyme assay on peptide substrate (EHMT1 PEP); format: biochemical
T2 sequence (Q9H9B1 1-1298): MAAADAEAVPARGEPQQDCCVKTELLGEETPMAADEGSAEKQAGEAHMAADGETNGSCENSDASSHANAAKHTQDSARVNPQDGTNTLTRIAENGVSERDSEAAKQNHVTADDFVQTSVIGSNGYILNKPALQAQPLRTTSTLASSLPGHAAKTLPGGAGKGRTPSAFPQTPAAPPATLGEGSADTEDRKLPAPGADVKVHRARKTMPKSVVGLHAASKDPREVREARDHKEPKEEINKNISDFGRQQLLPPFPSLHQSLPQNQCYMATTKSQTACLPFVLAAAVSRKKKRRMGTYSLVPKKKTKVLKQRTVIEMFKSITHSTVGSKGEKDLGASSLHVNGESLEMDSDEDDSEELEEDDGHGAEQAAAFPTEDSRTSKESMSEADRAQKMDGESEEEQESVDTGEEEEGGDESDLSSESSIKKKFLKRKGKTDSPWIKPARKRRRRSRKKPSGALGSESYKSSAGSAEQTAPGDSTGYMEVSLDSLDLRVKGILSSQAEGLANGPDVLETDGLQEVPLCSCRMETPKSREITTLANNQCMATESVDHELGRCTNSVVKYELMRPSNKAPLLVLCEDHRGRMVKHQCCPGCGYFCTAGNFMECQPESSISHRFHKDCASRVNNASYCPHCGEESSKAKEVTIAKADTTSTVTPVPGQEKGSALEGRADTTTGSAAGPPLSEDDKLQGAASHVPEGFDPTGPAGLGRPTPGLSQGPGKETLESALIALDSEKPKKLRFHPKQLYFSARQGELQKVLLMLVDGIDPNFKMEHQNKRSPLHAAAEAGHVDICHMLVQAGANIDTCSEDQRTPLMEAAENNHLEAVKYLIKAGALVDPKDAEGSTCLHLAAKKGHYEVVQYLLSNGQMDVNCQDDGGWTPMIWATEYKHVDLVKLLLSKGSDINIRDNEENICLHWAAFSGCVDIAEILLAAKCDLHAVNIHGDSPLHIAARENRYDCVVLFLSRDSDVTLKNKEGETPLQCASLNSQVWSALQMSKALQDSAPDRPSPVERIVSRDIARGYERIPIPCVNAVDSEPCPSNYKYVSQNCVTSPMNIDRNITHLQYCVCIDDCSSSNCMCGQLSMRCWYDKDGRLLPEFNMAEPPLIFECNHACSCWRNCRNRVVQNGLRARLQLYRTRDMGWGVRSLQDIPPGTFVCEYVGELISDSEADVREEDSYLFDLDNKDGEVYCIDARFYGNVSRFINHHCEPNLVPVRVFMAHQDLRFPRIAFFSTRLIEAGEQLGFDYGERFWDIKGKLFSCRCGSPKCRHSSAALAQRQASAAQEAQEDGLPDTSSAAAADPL

[1] = Table III, read-out: EHMT2 PEP (IC50 μM)
[2] = Table III, read-out: EHMT1 PEP (IC50 μM)

Row | SMILES | IC50 (human EHMT2 913-1193; [1]) | IC50 (EHMT1; [2]) | IC50 (human EHMT2 913-1193; Table VI, read-out: EHMT2 PEP IC50) | IC50 (EHMT1; Table VI, read-out: EHMT1 PEP IC50)
1 | CNc1cc(C)nc(Nc2ccc(OC)c(O[C@H]3C[C@H](N(C)C)C3)c2)n1 (single isomer, unassigned) [Compound 329, N^2-(3-((1r,3r)-3-(dimethylamino)cyclobutoxy)-4-methoxyphenyl)-N^4,6-dimethylpyrimidine-2,4-diamine] | 1 to 10 µM | 1 to 10 µM | – | –
2 | COc1ccc(Nc2ccc3cnn(C)c3n2)cc1OCCCN1CCCC1 [Compound 257, N-(4-methoxy-3-(3-(pyrrolidin-1-yl)propoxy)phenyl)-1-methyl-1H-pyrazolo[3,4-b]pyridin-6-amine] | > 10 µM | > 10 µM | – | –
3 | COc1ccc(Nc2cc3c(cn2)ncn3C)cc1OCCCN1CCCC1 [Compound 258, N-(4-methoxy-3-(3-(pyrrolidin-1-yl)propoxy)phenyl)-1-methyl-1H-imidazo[4,5-c]pyridin-6-amine] | > 10 µM | > 10 µM | – | –
4 | COc1ccc(Nc2nccc(NCC3CCOCC3)n2)cc1OC1CCC2(CC1)CN(C)C2 [Compound 260, N^2-(4-methoxy-3-((2-methyl-2-azaspiro[3.5]nonan-7-yl)oxy)phenyl)-N^4-((tetrahydro-2H-pyran-4-yl)methyl)pyrimidine-2,4-diamine] | > 10 µM | > 10 µM | – | –
5 | CNc1cnnc(Nc2cc(OCCCN3CCCC3)c(OC)cn2)c1 [Compound 322, N^3-(5-methoxy-4-(3-(pyrrolidin-1-yl)propoxy)pyridin-2-yl)-N^5-methylpyridazine-3,5-diamine] | < 0.1 µM | < 0.1 µM | – | –
6 | COc1cnc(Nc2nc(C)nc3[nH]ccc23)cc1OCCCN1CCCC1 [Compound 326, N-(5-methoxy-4-(3-(pyrrolidin-1-yl)propoxy)pyridin-2-yl)-2-methyl-7H-pyrrolo[2,3-d]pyrimidin-4-amine] | 0.1 to 1 µM | 0.1 to 1 µM | – | –
7 | CNc1cc(C)nc(Nc2ccc(OC)c(OC[C@H]3C[C@H](N(C)C)C3)c2)n1 [Compound 330] | > 10 µM | 1 to 10 µM | – | –
8 | CNc1cc(C)nc(Nc2ccc(OC)c(O[C@H]3C[C@H](CN(C)C)C3)c2)n1 [Compound 331, N^2-(3-((1r,3r)-3-((dimethylamino)methyl)cyclobutoxy)-4-methoxyphenyl)-N^4,6-dimethylpyrimidine-2,4-diamine] | > 10 µM | > 10 µM | – | –
9 | COc1cnc(Nc2cc(C)nc3[nH]ccc23)cc1OCCCN1CCCC1 [Compound 336, N-(5-methoxy-4-(3-(pyrrolidin-1-yl)propoxy)pyridin-2-yl)-6-methyl-1H-pyrrolo[2,3-b]pyridin-4-amine] | 0.1 to 1 µM | 0.1 to 1 µM | – | –
10 | COc1ccc(Nc2ccnc(NCC3CCN(C(C)=O)CC3)n2)cc1OCCCN1CCCC1 [Compound 340] | 0.1 to 1 µM | 0.1 to 1 µM | – | –
11 | COc1ccc(Nc2ccc3cnn(C)c3c2)cc1OCCCN1CCCC1 [Compound 341] | > 10 µM | > 10 µM | – | –
12 | COc1ccc(Nc2ccc3nn(C)cc3c2)cc1OCCCN1CCCC1 [Compound 345] | > 10 µM | > 10 µM | – | –
13 | COc1ccc(Nc2ccc3ncc(C)n3n2)cc1OCCCN1CCCC1 [Compound 347] | 1 to 10 µM | 1 to 10 µM | – | –
14 | COc1ccc(Nc2nccc(NCC3CCOCC3)n2)cc1NCCCN1CCCC1 [Compound 350] | 0.1 to 1 µM | 0.1 to 1 µM | – | –
15 | COc1ccc(NCCCN2CCCC2)cc1Nc1nccc(NCC2CCOCC2)n1 [Compound 352] | > 10 µM | > 10 µM | – | –
16 | CNc1ccnc(Nc2ccc(OC)c(OCCCN3CC[C@@H](F)C3)c2)n1 [Compound 353] | 0.1 to 1 µM | 0.1 to 1 µM | – | –
17 | CNc1ccnc(Nc2ccc(OC)c(OCCCN3CC(F)C3)c2)n1 [Compound 354] | 1 to 10 µM | 0.1 to 1 µM | – | –

Further lines, results first:

Row | IC50 (human EHMT2 913-1193; [1]) | IC50 (EHMT1; [2]) | IC50 (human EHMT2 913-1193; Table VI, read-out: EHMT2 PEP IC50) | IC50 (EHMT1; Table VI, read-out: EHMT1 PEP IC50) | SMILES
18 | > 10 µM | > 10 µM | – | – | COc1ccc(Nc2nccc(NCC3CCOCC3)n2)cc1OC1CCC2(CC1)CCN(C)C2 (stereo not drawn) [Compound 259, N^2-(4-methoxy-3-((2-methyl-2-azaspiro[4.5]decan-8-yl)oxy)phenyl)-N^4-((tetrahydro-2H-pyran-4-yl)methyl)pyrimidine-2,4-diamine]
19 | > 10 µM | > 10 µM | – | – | CNc1cc(Nc2cc(OCCCN3CCCC3)c(OC)cn2)cnn1 [Compound 323, N^5-(5-methoxy-4-(3-(pyrrolidin-1-yl)propoxy)pyridin-2-yl)-N^3-methylpyridazine-3,5-diamine]
20 | 1 to 10 µM | 1 to 10 µM | – | – | CNc1cc(Nc2cc(OCCCN3CCCC3)c(OC)cn2)ncn1 [Compound 324, N^4-(5-methoxy-4-(3-(pyrrolidin-1-yl)propoxy)pyridin-2-yl)-N^6-methylpyrimidine-4,6-diamine]
21 | 1 to 10 µM | 1 to 10 µM | – | – | CNc1cc(Nc2cc(OCCCN3CCCC3)c(OC)cn2)nc(C)n1 [Compound 325, N^4-(5-methoxy-4-(3-(pyrrolidin-1-yl)propoxy)pyridin-2-yl)-N^6,2-dimethylpyrimidine-4,6-diamine]
22 | 0.1 to 1 µM | 0.1 to 1 µM | – | – | CNc1nc(Nc2ccc(OC)c(OCCCN3CCCC3)c2)nc2c1CCC2 [Compound 328, N^2-(4-methoxy-3-(3-(pyrrolidin-1-yl)propoxy)phenyl)-N^4-methyl-6,7-dihydro-5H-cyclopenta[d]pyrimidine-2,4-diamine]
23 | < 0.1 µM | < 0.1 µM | – | – | CNc1cc(C)nc(Nc2cnc(OC)c(OCCCN3CCCC3)c2)n1 [Compound 332, N^2-(6-methoxy-5-(3-(pyrrolidin-1-yl)propoxy)pyridin-3-yl)-N^4,6-dimethylpyrimidine-2,4-diamine]
24 | 1 to 10 µM | 1 to 10 µM | – | – | CCn1nc(Nc2nccc3[nH]ccc23)cc1COCCN1CCCC1 [Compound 333]
25 | 0.1 to 1 µM | 0.1 to 1 µM | – | – | COc1cnc(Nc2ccnc3[nH]ccc23)cc1OCCCN1CCCC1 [Compound 335, N-(5-methoxy-4-(3-(pyrrolidin-1-yl)propoxy)pyridine-2-yl)-1H-pyrrolo[2,3-b]pyridin-4-amine]
26 | 1 to 10 µM | 0.1 to 1 µM | – | – | COc1ccc(Nc2nc(C)c(F)c(NC(C)C)n2)cc1OCCCN1CCCC1 [Compound 337]
27 | > 10 µM | > 10 µM | – | – | COc1ccc(Nc2nccc(-n3nc(C)cc3C)n2)cc1OCCCN1CCCC1 [Compound 338]
28 | > 10 µM | > 10 µM | – | – | CNCc1cnc(Nc2ccc(OC)c(OCCCN3CCCC3)c2)nc1 [Compound 339]
29 | > 10 µM | > 10 µM | – | – | COc1ccc(Nc2ccc3ncn(C)c3n2)cc1OCCCN1CCCC1 [Compound 342]
30 | > 10 µM | > 10 µM | – | – | COc1ccc(Nc2ncc3ncn(C)c3n2)cc1OCCCN1CCCC1 [Compound 343]
31 | > 10 µM | > 10 µM | – | – | COc1ccc(Nc2cccc3ncnn23)cc1OCCCN1CCCC1 [Compound 344]
32 | > 10 µM | > 10 µM | – | – | COc1ccc(Nc2cccc3cn(C)nc23)cc1OCCCN1CCCC1 [Compound 346]
33 | > 10 µM | > 10 µM | – | – | COc1ccc(Nc2nccc(-c3cnn(C)c3)n2)cc1OCCCN1CCCC1 [Compound 348]
34 | 1 to 10 µM | 1 to 10 µM | – | – | COc1ccc(Nc2nccc(Nc3cccc(F)c3)n2)cc1OCCCN1CCCC1 [Compound 349]
35 | > 10 µM | > 10 µM | – | – | COc1ccc(OCCCN2CCCC2)cc1Nc1nccc(NCC2CCOCC2)n1 [Compound 351]
36 | – | – | 1 to 10 µM | 1 to 10 µM | CNc1cc2nccn2c(Nc2cc(OCCCN3CCCC3)c(OC)cn2)n1 [Compound 611]
